Read-outs that look alike come from different tables or passages of the source.
Experiments:
P815 mastocytoma = assay: Effect of restraint stress on promotion of cancer metastasis (transplanted nodes on liver surface); type: in vivo, male DBA/2 mice; conditions: Roche synthetic astaxanthin, 1 mg/kg by gavage three times in MCT; 16 days after transplantation; FIG. 7
Protocol: 7 week old, male DBA/2 mice were purchased from Japan Clea Co., Ltd., and after housing on a preliminary basis for 1 week in a specific pathogen free (SPF) atmosphere, the animals were used in the experiment at age 8 weeks.
The experimental mice were divided into three groups consisting of a restraint stress non-loaded control group (8 mice), a restraint stress loaded control group (8 mice) and a restraint stress loaded astaxanthin group (9 mice). Astaxanthin was administered orally by gavage three times on the day before restraint, immediately after the start of restraint and the day after the start of restraint at a dose of 1 mg/kg (MCT solution) each. Roche astaxanthin, a synthetic form of astaxanthin, was used for the test substance, while the control groups were orally administered MCT only three times by gavage. Restraint stress loading was performed under the same conditions as Example 1.
Mastocytoma subcultured in the abdominal cavities of DBA/2 mice in this laboratory was used for the P815 mastocytoma (DBA/2 mouse cutaneous mastocytoma). 1×10^4 cells/animal were transplanted into the caudal vein of each animal. […] The liver was excised 16 days after transplantation and after Vaughn's fixation, the number of transplanted nodes on the liver surface was measured.

cancer cell = conditions: cited from earlier work
antibody production = conditions: cited from earlier work
thymus weight = assay: Effect of restraint stress on decreased thymus weight; type: in vivo, male C57BL/6 mice; conditions: Astaxanthin (Roche) in MCT; for minimal effective dose: Mus musculus, po
From the text: Six week old, male C57BL/6 mice were purchased from Japan Clea Co., Ltd., and after preliminarily keeping for 1 week in an SPF (specific pathogen free) environment, were used in the experiment at age 7 weeks.
The mice were divided into a restrained group (16 mice) and a non-restrained group (5 mice). The unrestrained group was used as a control group. The restrained group was further divided into 4 groups of 4 mice each, and designated as the restrained control group, vitamin E group, β-carotene group and astaxanthin group. The restrained groups were restrained for 20 hours in metal restraint cages under conditions of minimal body movement and access to drinking water to induce restraint stress.
ASTAX 5000 manufactured by Itano Refrigated Food Co., Ltd. (containing 3.57% astaxanthin diester and 1.53% astaxanthin monoester), extracted and purified from krill, was used for astaxanthin. ASTAX 5000 was dissolved in medium chain fatty acid triglyceride (MCT) to a concentration of 100 mg/10 ml as astaxanthin content and used as the test substance solution. Vitamin E and β-carotene were dissolved in MCT, and MCT only was administered to the control group. The test substances were given orally three times on the day before restraint, immediately after restraint, and on the day after restraint at a dose of 100 mg/kg, for each test substance.
The mice were sacrificed by dislocation of the cervical vertebra 48 hours after the start of restraint. The thymus gland was excised and weighed.
Astaxanthin (Roche) was dissolved in MCT to astaxanthin concentrations of 0.04 mg/10 ml, 0.2 mg/10 ml, 1.0 mg/10 ml and 5.0 mg/10 ml to prepare the test substance solutions.
Thymus weight and spleen-origin NK cell activity were measured using the same procedures as described in Examples 1 and 2.

[1] = cited from earlier work

CC1=C(/C=C/C(C)=C/C=C/C(C)=C/C=C/C=C(C)/C=C/C=C(C)/C=C/C2=C(C)C(=O)[C@@H](O)CC2(C)C)C(C)(C)C[C@H](O)C1=O [astaxanthin]
inhibition of promotion of cancer metastasis caused by stress (P815 mastocytoma): remarkable inhibition of promotion of cancer metastasis
cancer cell growth inhibitory activity (cancer cell): cancer cell growth inhibitory activity
antibody production activity (antibody production): antibody production activity
inhibitory effect on decreases in thymus weight caused by stress loading (thymus weight; 0.04-5.0 mg/10 ml, FIG. 5): dose-dependent inhibitory effects
minimal effective dose (thymus weight; FIG. 5, read-out: doses at which the effect on decreased thymus weight was significant): ≥ 1 mg/kg
minimal effective dose (thymus weight; suggested by thymus weight and NK cell activity, read-out: minimum effective dose of the anti-stress effect): ~1 mg/kg
oxidation and decomposition in air [1]: easily oxidized and decompose relatively easily in air

— US6265450A, “Anti-stress composition” (Suntory Limited, priority 1995, dated 2001)
